These results are taken from ChEMBL document CHEMBL1201862, “PubChem BioAssay data set” (2004).

Active and inactive are the calls of the source. Rule as the data show it, for most assays here: actives have a measured EC50 and inactives only a lower limit.

Assay [1] deals with T1, Corticotropin-releasing factor receptor 2/Corticotropin-releasing factor-binding protein (Homo sapiens, UniProt P24387+Q13324).
T1 sequence (Q13324 whole entry): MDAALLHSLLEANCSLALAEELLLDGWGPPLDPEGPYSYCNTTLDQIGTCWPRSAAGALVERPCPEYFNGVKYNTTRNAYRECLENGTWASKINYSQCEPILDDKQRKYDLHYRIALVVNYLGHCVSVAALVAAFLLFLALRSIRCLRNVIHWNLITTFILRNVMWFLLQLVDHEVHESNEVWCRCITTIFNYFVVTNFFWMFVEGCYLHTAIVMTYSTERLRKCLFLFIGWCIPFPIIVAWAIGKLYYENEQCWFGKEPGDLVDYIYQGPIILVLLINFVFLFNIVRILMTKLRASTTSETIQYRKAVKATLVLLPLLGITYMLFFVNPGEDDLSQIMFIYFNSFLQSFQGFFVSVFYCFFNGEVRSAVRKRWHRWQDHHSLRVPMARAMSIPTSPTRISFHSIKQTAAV
T1 sequence (P24387 whole entry): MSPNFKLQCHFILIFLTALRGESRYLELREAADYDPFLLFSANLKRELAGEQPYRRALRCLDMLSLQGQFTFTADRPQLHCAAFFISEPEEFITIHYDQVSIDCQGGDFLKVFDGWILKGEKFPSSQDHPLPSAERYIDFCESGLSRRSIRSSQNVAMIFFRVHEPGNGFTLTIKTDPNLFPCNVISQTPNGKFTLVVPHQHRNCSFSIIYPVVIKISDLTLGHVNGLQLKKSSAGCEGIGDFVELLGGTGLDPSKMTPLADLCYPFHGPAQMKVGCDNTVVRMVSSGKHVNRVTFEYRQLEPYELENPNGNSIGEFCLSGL
Briefly: activators of CRF receptor 2 with binding protein – uHTS hits, confirmation (AID 602473). The following applies: read-out: EC50_Mean. It is filed as functional.

The target of assay [2] is Luciferin 4-monooxygenase (Photinus pyralis, UniProt P08659). Kind of assay: inhibition of purified Photinus pyralis luciferase – biochemical, luminescence, dose response (AID 1891).
Chain of Luciferin 4-monooxygenase (P08659 whole entry): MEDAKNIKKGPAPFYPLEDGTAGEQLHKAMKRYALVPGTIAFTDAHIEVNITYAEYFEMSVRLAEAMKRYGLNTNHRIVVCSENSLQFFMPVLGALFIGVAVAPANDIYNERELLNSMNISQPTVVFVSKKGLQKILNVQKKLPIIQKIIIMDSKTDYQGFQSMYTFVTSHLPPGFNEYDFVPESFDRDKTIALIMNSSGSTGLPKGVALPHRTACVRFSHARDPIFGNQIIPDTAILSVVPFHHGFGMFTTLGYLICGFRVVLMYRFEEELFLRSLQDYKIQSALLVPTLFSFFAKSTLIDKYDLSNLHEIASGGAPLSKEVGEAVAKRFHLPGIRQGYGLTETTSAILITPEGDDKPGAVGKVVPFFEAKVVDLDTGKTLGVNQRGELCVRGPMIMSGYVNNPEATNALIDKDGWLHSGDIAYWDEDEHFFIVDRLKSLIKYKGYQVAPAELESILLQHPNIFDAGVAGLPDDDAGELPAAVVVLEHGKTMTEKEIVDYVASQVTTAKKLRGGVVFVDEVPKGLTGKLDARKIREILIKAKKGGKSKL
A short description of assay [3]: Luminescence Cell-Based Dose Confirmation HTS to Identify Inhibitors of Platelet Dense Granule Release. [Related pubchem assays: 1663 (Primary HTS), 1678 (Summary of Project)]. It is filed as functional.
Assay [4] is described as follows: alpha-synuclein stem-loop luciferase translation blockers – H4 neuroglioma cells, luminescence, confirmation (AID 1988). It is filed as functional, cell-based.
The nature of assay [5]: Luminescence Cell-Based Dose Response HTS to Identify Inhibitors of 5'UTR Stem-Loop Driven Prion Protein mRNA Translation in H4 Neuroglioblastoma Cells. [Related pubchem assays: 1827 (Project Summary), 1813 (Primary HTS)]. It is filed as functional.
A short description of assay [6]: luciferase reporter signal suppression in cells – H4 neuroglioma cells, luminescence, dose response (AID 1990). It is filed as functional, cell-based.
The subject of assay [7] is H4. Briefly: Luminescence Cell-Based Dose Response HTS to Identify Activators of 5'UTR Stem-Loop Driven Prion Protein mRNA Translation in H4 Neuroglioblastoma Cells. [Related pubchem assays: 1829 (Project Summary), 1814 (Primary HTS)]. It is filed as functional. The following applies: Homo sapiens.
A short description of assay [8]: Luminescence Cell-Based Dose Response HTS to Identify Activators of Luciferase Translation or Activity in H4 […] Cells. [Related pubchem assays: 1829 (Project Summary), 1814 (Primary HTS)]. It is filed as functional.
Assay [9] has as its target T2, RNA-binding protein pos-1 (Caenorhabditis elegans, UniProt G5EF15).
T2 sequence (G5EF15 whole entry): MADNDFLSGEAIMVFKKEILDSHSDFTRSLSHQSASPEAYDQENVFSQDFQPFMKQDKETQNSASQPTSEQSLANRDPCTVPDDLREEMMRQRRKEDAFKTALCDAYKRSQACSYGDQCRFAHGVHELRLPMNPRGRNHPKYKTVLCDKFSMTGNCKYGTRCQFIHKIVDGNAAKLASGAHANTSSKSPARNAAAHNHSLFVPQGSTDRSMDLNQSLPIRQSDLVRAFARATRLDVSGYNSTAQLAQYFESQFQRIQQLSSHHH
Briefly: disruptors of C. elegans POS-1 RNA interaction – biochemical, fluorescence polarization, dose response (AID 1964).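 Also: purified POS-1 fused to maltose binding protein made in E. coli; potency of compounds blocking POS-1 binding to fluorescent RNA.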

For assay [10], the target named is T3, Zinc finger protein mex-5 (Caenorhabditis elegans, UniProt Q9XUB2).
T3 sequence (Q9XUB2 whole entry): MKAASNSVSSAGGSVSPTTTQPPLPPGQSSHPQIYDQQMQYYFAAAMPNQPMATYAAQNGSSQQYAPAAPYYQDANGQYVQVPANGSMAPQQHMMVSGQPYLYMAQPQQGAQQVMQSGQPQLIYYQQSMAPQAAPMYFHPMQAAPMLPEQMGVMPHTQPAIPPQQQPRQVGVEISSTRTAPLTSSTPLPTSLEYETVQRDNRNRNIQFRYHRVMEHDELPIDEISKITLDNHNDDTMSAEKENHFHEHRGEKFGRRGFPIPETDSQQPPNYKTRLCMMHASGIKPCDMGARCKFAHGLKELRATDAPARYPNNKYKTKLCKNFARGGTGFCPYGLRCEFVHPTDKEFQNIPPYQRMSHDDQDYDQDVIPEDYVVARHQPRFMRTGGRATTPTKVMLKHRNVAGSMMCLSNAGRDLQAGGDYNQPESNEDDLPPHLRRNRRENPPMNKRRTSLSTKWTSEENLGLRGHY
Kind of assay: potency of MEX-5 RNA-binding blockers – biochemical, C. elegans, fluorescence polarization, dose response (AID 1960).

A short description of assay [11]: NIH3T3 cell viability loss – ATP luminescence, mouse fibroblasts, counter-screen, dose response (AID 2010).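 Also: cells exposed to compound for about 90 hours before reading.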 It is filed as functional, cell-based.
Assay [12] can be described thus: Trypanosoma cruzi growth suppression in host cells – NIH3T3 host cells, beta-gal luminescence, confirmation (AID 2044).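 Also: intracellular parasites grown in NIH/3T3 mouse fibroblasts as host cells; luminescent beta-galactosidase reporter signal from transgenic T. cruzi replicating inside host cells; inhibitors lower the luminescence signal.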 It is filed as functional, cell-based.
In assay [13] the target is FAD-linked sulfhydryl oxidase ALR (Homo sapiens, UniProt P55789). Briefly: ALR-catalysed DTT oxidation blockers – biochemical, H2O2 detection, luminescence, cherry-pick, dose response (AID 493248).
Chain of FAD-linked sulfhydryl oxidase ALR (P55789 whole entry): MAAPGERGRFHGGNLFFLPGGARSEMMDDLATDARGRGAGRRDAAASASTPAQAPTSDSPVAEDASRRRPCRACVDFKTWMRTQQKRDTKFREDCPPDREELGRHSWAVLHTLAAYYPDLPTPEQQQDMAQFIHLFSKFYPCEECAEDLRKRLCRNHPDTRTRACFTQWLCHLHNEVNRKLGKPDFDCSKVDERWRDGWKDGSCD
In assay [14] the target is Cytochrome P450 2C9 (Homo sapiens, UniProt P11712).
Chain of Cytochrome P450 2C9 (P11712 whole entry): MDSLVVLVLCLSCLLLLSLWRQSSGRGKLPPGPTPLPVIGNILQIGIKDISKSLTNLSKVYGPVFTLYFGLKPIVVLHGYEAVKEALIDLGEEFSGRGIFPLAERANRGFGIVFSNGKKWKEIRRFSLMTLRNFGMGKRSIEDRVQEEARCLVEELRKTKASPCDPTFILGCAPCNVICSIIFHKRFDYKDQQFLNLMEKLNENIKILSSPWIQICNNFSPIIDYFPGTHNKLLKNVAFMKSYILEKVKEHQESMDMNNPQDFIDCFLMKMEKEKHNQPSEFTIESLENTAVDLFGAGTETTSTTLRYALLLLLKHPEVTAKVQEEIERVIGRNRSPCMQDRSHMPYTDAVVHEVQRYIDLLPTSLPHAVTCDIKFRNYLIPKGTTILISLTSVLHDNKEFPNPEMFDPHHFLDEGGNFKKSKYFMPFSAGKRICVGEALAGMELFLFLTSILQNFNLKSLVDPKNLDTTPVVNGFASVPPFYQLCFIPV
The target of assay [15] is T4, Rac GTPase-activating protein 1 (Homo sapiens, UniProt Q9H0H5).
T4 sequence (Q9H0H5 whole entry): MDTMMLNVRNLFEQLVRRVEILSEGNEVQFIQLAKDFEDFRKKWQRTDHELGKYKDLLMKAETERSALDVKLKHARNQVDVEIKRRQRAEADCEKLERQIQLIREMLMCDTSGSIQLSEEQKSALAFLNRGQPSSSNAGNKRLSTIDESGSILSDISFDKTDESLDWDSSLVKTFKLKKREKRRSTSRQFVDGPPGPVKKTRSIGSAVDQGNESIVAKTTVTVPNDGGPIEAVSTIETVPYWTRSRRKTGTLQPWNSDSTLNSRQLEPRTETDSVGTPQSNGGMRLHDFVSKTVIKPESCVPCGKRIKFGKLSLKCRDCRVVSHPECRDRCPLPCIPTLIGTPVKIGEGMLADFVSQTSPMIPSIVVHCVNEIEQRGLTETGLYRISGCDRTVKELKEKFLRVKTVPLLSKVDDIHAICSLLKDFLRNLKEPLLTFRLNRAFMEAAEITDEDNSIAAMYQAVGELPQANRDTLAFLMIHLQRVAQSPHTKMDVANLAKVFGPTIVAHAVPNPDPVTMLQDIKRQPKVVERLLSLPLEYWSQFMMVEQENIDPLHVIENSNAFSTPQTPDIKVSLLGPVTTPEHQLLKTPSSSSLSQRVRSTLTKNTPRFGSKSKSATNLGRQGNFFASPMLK
Kind of assay: blockers of MgcRacGAP-driven Rac1 GTP hydrolysis – biochemical, ADP Hunter fluorescence, primary and confirmatory, confirmation (AID 624330). It is filed as functional.

The target in assay [16] is Cytochrome P450 3A4 (Homo sapiens, UniProt P08684).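 Also: CYP3A4 tested as one member of a cytochrome P450 panel screen.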
Chain of Cytochrome P450 3A4 (P08684 whole entry): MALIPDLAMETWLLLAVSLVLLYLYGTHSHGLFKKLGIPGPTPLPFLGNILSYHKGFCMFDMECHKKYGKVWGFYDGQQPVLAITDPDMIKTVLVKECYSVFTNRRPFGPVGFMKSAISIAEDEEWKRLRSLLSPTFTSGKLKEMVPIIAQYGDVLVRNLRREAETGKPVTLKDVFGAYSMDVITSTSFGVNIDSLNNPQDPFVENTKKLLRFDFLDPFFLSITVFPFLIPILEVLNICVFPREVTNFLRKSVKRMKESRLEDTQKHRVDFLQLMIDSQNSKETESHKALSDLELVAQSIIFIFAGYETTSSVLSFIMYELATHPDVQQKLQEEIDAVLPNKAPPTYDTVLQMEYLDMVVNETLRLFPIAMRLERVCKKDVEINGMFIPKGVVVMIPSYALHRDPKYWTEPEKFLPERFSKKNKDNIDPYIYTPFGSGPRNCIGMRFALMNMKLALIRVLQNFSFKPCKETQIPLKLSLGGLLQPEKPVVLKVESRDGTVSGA

Consider `CC(=O)N1N=C2C3CCN(CC3)C2C1c1cccc2ccccc12` (stereo unspecified), for which the EC50 in assay [1] is > 53 µM (inactive).

As to `CC(C)Oc1ccc(N2CC(C(=O)Nc3ccc(N4CCOCC4)cc3)CC2=O)cc1` (stereo unspecified), the EC50 in [2] and in [3] was > 112 µM (not active) each time.

Regarding `Cc1ccc(-n2nnnc2SCCNS(=O)(=O)c2ccccc2)cc1C`, the EC50 is > 120 µM (not active) in [4], 20.5 µM (active) in [5] and > 120 µM (not active) in assay [6].

For the compound `O=C(c1ccc(Cl)s1)N1CCc2ccccc21`, the EC50 is 56.2 µM (inconclusive) in assay [7] and 0.124 µM (active) in [8].

For the compound `O=CN/N=C/c1c(O)ccc2ccccc12`, the EC50 is > 300 µM (not active) in assay [9] and 5.35 µM (active) in [10].

Consider `O=C(CN(c1ccc(Cl)cc1)S(=O)(=O)c1ccc(Cl)c([N+](=O)[O-])c1)NCCc1ccccc1`, for which the EC50 in assay [11] is > 60 µM (not active); in assay [4], 9.06 µM (active); in assay [5], 8.52 µM (active); in assay [12] it was 3.56 µM (active); in assay [6], > 120 µM (not active).

As to `C/C(=N\C1CCCC1)c1c(C)[nH]n(-c2nc3ccccc3s2)c1=O`, the EC50 in [9] and in assay [10] was > 300 µM (not active) each time. Moreover, the AC50 in assay [13] is 1.24 µM (active).

On to `CSc1ccc(/C=N/NC(=O)c2ccc(O)cc2)cc1`, for which the EC50 in [2] was 1.57 µM (active); in [3], 13.9 µM (active).

Turning to `Cc1[nH]cnc1C(=O)N/N=C/c1c(Cl)cccc1Cl`, the EC50 in assay [2] was 4.22 µM (active); in assay [3], 1.54 µM (active).

In the case of `COc1cc(/C=C(\C#N)C(=O)NCCc2ccccc2)cc(OC)c1O`, the EC50 in assay [1] was > 53 µM (inactive).

As for `CC(C)(C)Nc1nc(N2CCCC2)nc(N2CCCC2)n1`, in assay [14], the AC50 was 5.01 µM (inconclusive). For the same compound, the EC50 in assay [4] was 16.7 µM (active); in assay [5], 19.6 µM (active); in assay [6] it was 16.7 µM (active).

Turning to `Cc1nc2cc(-c3cccc(F)c3)nn2c(C)c1CCC(=O)N1CCN(c2ccccn2)CC1`, the EC50 in assay [4] was 12.4 µM (active); in [5], 14.1 µM (active); in assay [6] it was 11.9 µM (active).

With `Oc1c(/C=N/c2ccccc2Cl)[nH]c2ccccc12`, the EC50 in assay [9] and in assay [10] was > 300 µM (not active) throughout.

As to `CC(=O)N(C)c1ccc(/N=N/c2c(C)[nH]n(C(N)=S)c2=O)cc1`, the figures for the EC50 in [9] and in [10] were > 300 µM (not active) and 24.2 µM (active), respectively.

As to `CNc1nc2c3ccccc3n(C(C)=O)c2s1`, the EC50 in assay [2] and in assay [3] was > 112 µM (not active) throughout. Besides, the IC50 in assay [15] is 184 µM (active).

Turning to `C[C@@H](Cc1ccccc1)Nc1ncnc2c1ncn2[C@@H]1O[C@@H](CO)[C@H](O)[C@@H]1O`, the AC50 in [16] was 10 µM (inconclusive).

Consider `N#CC1=C(N)C(C#N)(C#N)C(c2cccnc2)C2CCCC=C12` (stereo unspecified), for which the values for the EC50 in [9] and in assay [10] were 22.2 µM (active) and 17.5 µM (active), respectively.

Consider `Cc1onc(-c2c(F)cccc2Cl)c1C(=O)N1CCCc2ccccc21`, for which the EC50 in [9] and in assay [10] was > 300 µM (not active) each time.

For the compound `COCCNC(=O)/C(C#N)=C/c1ccc(O)cc1`, the EC50 in assay [2] was 4.8 µM (active); in assay [3] it was 1.62 µM (active).

Regarding `Cc1c(Cl)ccc2sc(NC(=O)C3CC3)nc12`, the EC50 in [2] and in assay [3] was > 112 µM (not active) in each case.

Consider `CCCCC1=CC2=CC(=O)C(C)(OC(=O)c3cnc4ccccc4n3)C(=O)C2=CO1` (stereo unspecified), for which the EC50 was 19.9 µM (active) in [9] and 19 µM (active) in assay [10].

In the case of `CCOC(=O)c1ccc(-n2c(CCC(=O)O)ccc2-c2ccccc2)cc1`, the EC50 in assay [9] and in assay [10] was > 300 µM (not active) throughout.

In the case of `N#CC(C#N)=Cc1ccc(-c2ccc(S(=O)(=O)NC(=N)N)cc2)o1`, the EC50 is > 300 µM (not active) in [9] and 236 µM (active) in assay [10].

`CN1CCC(NC(=O)Nc2cccc(C(F)(F)F)c2)CC1`: the EC50 in assay [2] and in [3] was > 112 µM (not active) in each case.

As to `CCn1c2ccccc2c2cc(NC(=O)CSc3nnc(-c4cccc(Cl)c4)o3)ccc21`, the EC50 in assay [2] and in assay [3] was > 112 µM (not active) each time.

For the compound `CC(=O)NCCNc1ccc([N+](=O)[O-])cc1C#N`, the EC50 in assay [9] and in assay [10] was > 300 µM (not active) throughout.

`CC1CCCCN1S(=O)(=O)c1ccc(S(=O)(=O)N(CC(=O)Nc2ccccc2)Cc2cccs2)cc1` (stereo unspecified): the EC50 in assay [11] was > 60 µM (inconclusive); in assay [2], > 112 µM (not active); in assay [12], 1.7 µM (active); in assay [3], > 112 µM (not active).

Take `COc1cccc(C2(O)CCN(CC(=O)Nc3nc(C)cs3)CC2)c1`: the EC50 in [9] and in assay [10] was > 300 µM (not active) throughout.

Consider `CC(=O)Nc1ccc2nc(NC(=O)c3cccs3)sc2c1`, for which the results for the EC50 in assay [2] and in [3] were 2.26 µM (active) and 6.27 µM (active), respectively.
